Test results as given in publication PMC9501633, “Synthesis, Characterisation and Mechanism of Action of Anticancer 3-Fluoroazetidin-2-ones” (Pharmaceuticals, 2022).

Tested on: NCI 60 cell line panel
Assay: NCI 60 cell line screen, whole panel
Assay type: cell-based
Settings: 5-dose assay, 48 h, mean-graph midpoint
Description: The antiproliferative effects of selected compounds 33, 37 and 43 were initially evaluated in the NCI 60 cell line screen at 10 μM concentration (see Supplementary Materials Table S3). […] . […] .
Compound 33 was next selected for evaluation in the NCI 60 cell line five-dose screen. The GI50 (50% growth inhibition), TGI (total growth inhibition) and LC50 (50% lethal concentration) were determined in the NCI panel of 60 cell lines, using the sulphorhodamine B (SRB) protein assay (Table 5). The GI50 value provides the growth inhibition of the selected compound, while the cytotoxic effect is evaluated in the LC50 value. […] . […] . Glioblastoma is an aggressive and fast-growing brain tumour with a median survival time of 9–16 months from diagnosis, and these tumours quickly evolve resistance to temozolomide chemotherapy, which is the only FDA-approved treatment. […] . Further mechanistic and cellular studies were carried out and are described below.
aData obtained from NCI in vitro human tumour cell screen 1 dose assay (10 µM). 33 (NCI

For `COc1ccc(/C=C\c2cc(OC)c(OC)c(OC)c2)cc1O` [CA-4, combretastatin A-4, reference compound], the “MG-MID TGI” value was 10300 nM and the GI50 (Homo sapiens, 60 cell, read-out: MG-MID GI50) was 99 nM.
